Results as given in patent US20070037835A1, “Pharmaceutical composition comprising a cathepsin s inhibitor and an opioid” (priority 2003, published 2007).
Structures can show the parent of a compound that is named as a salt.

Legend:
[1] = tested on: established mechanical hyperalgesia; test: Chronic neuropathic pain model (Seltzer, partial ligation of the sciatic nerve), paw withdrawal threshold; assay type: in vivo, Wistar rats; settings: mean ± s.e.m.
Excerpt: Hyperalgesia is examined in the model of neuropathic pain induced by partial ligation of the sciatic nerve as described by Seltzer et al. (1990). Briefly, Wistar rats (120-140 g) are anaesthetised, the left sciatic nerve exposed at mid-thigh level through a small incision and ⅓ to ½ of the nerve thickness tightly ligated within a 7.0 silk suture. The wound is closed with a single muscle suture and skin clips and dusted with Aureomycin antibiotic powder. The animals are allowed to recover and used 12-15 days following surgery. Mechanical hyperalgesia is assessed by measuring paw withdrawal thresholds to an increasing pressure stimulus placed onto the dorsal surface of the paw using an analgesy-meter (Ugo-Basile, Milan) with a cut-off of 250 g. Withdrawal thresholds are measured on both the ipsilateral (ligated) and contralateral (unligated) paw prior to (predose) and then up to 6 h following drug or vehicle administration. Data are expressed as withdrawal threshold (g) and percentage reversal of hyperalgesia calculated according to the following formula: [formula]
Potency is expressed as D50 value, i.e. the dose of the single compound or a COMBINATION OF THE INVENTION necessary to produce 50% reversal of hyperalgesia.
Paw withdrawal thresholds are measured prior to drug treatment (predose) and then at 0.5, 1, 3 and 6 hours following concomitant administration of morphine subcutaneously and the cathepsin inhibitor of formula II orally. Each time point represents data from 6 animals per group. Vehicle is 0.5% methylcellulose, 1 ml p.o./0.9% saline s.c. Statistical analysis is performed on raw data (paw withdrawal thresholds).
Statistical significance, *† P<0.05 by Analysis of variance followed by Dunnett's test.

[2] = tested on: neuropathic rat nociceptive threshold; test: Naloxone blockade of anti-hyperalgesic effect in neuropathic rats; assay type: in vivo

SMILES: CC(C)(C)CCn1c(Cc2ccc(Cl)cc2)cc2cnc(C#N)nc21 [Inhibitor]
- % Reversal of Predose Hyperalgesia ([1]; Inhibitor 10 mg/kg p.o., 0.5 h post-dose): 30.3 ± 5.8%
- % Reversal of Predose Hyperalgesia ([1]; Inhibitor 10 mg/kg p.o., 1 h post-dose): 22.8 ± 4.6%
- % Reversal of Predose Hyperalgesia ([1]; Inhibitor 30 mg/kg, 0.5 h post-dose): 46.7 ± 11.4%
- % Reversal of Predose Hyperalgesia ([1]; Inhibitor 30 mg/kg, 1 h post-dose): 54.7 ± 7.1%

SMILES: CN1CC[C@]23c4c5ccc(O)c4O[C@H]2[C@@H](O)C=C[C@H]3[C@H]1C5 [Morphine, morphine]
- % Reversal of Predose Hyperalgesia ([1]; Morphine 1 mg/kg s.c., 0.5 h post-dose): 4.4 ± 2.8%
- % Reversal of Predose Hyperalgesia ([1]; Morphine 1 mg/kg s.c., 1 h post-dose): 6.5 ± 2.9%

SMILES: C=CCN1CC[C@]23c4c5ccc(O)c4O[C@H]2C(=O)CC[C@@]3(O)[C@H]1C5 [Naloxone hydrochloride]
- effect on neuropathic rat nociceptive threshold ([2]; naloxone alone, 0.1 mg/kg): devoid of any effect
- effect on the anti-hyperalgesic effect induced by the compound of formula II ([2]; neuropathic rats, naloxone 0.1 mg/kg): blocks the anti-hyperalgesic effect
